Data set [1] concerns the target T1, RORγt (Homo sapiens, UniProt P51449).
T1 sequence (P51449 269-508 limits assumed): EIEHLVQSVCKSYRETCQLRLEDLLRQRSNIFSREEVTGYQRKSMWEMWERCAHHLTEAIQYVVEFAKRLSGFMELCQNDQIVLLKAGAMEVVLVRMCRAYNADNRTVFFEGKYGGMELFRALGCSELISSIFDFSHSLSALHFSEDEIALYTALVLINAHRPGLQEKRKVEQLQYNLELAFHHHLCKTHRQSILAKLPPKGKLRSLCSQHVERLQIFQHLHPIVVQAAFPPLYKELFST
Briefly: Indigo Biosciences Human RAR-related Orphan Receptor, Gamma Reporter Assay (in vitro inhibition of RORγt). As to conditions: RORγt reporter cells, luciferase readout, 22-24 h incubation; read-out: IC50 range. The data set is classed as cell-based. The procedure:
The in vitro inhibition of RORγt was measured using Indigo Biosciences Human RAR-related Orphan Receptor, Gamma Reporter Assay System (Product #IB304001-32) as described in the technical manual. In brief, 200 μL of Reporter Cells is dispensed into wells of the assay plate and preincubated for 4-6 h. Following the pre-incubation period, culture media are discarded and 200 µL/well of the prepared 1×-concentration treatment media are added. Following 22-24 h incubation, treatment media are discarded and Luciferase Detection Reagent is added. The intensity of light emission (in units of ‘Relative Light Units’; RLU) from each assay well is quantified using a plate-reading luminometer. Average values of RLU were determined for each treatment concentration. Non-linear regression analyses were performed and IC50 values determined using GraphPad Prism software. Provided inverse-agonists ursolic acid served as positive control.

Data set [2] in a line: Cell viability assay accompanying the SARS-CoV-2 assay. The data set is classed as cell-based. As to conditions: cell viability assay of the SARS-CoV-2 test. The source says:
(§1) The assay for viral replication (YFP) and the cell viability assay has been described in general in Pathogens 2021; 10:1076 and applied to compounds of the present invention furnished the following results: […]

Data set [3] deals with SARS-CoV-2. Briefly: Antiviral activity on SARS-CoV-2, viral replication (YFP) assay. As to conditions: Severe acute respiratory syndrome coronavirus 2, read-out: EC50 range. In kind it is cell-based.
Source text: as §1

Data set [4] in a line: Mouse pharmacokinetics, oral or intravenous cassette dosing. The data set is classed as in vivo, mice (C57BL/6J). As to conditions: C57BL/6J, whole blood, 3 female mice, 5 mg/kg oral cassette, sampling 0.25-8 h. The procedure:
The pharmacokinetics of the compounds of the present invention was evaluated in 3 male and 3 female mice (C57BL/6J, 8 week old) after oral or intravenous cassette dosing to assess the oral bioavailability. Dose was 5 mg/kg (oral) and 1 mg/kg (intravenous), application volume was 5 mL/kg (oral) and 0.5 mL/kg (intravenous), vehicle was 5% solutol, 95% NaCl solution (at 0.9% saline concentration) for oral and 5% solutol, 5% Ethanol, 90% NaCl solution (at 0.9% saline concentration) for intravenous. At each designated time point (0.25, 0.5, 1, 2, 4, 8 and 24 h after dosing), 20 μL whole blood were collected from the tail vein into Li-heparin tubes, frozen on dry ice within 1-2 minutes of sampling and stored at −20° C. until processed for LC-MS analysis. The obtained data is as follows:
The pharmacokinetics of additional compounds of the present invention was evaluated in 3 female mice (C57BL/6J, 8 week old) after oral cassette dosing. Dose was 5 mg/kg, application volume was 5 mL/kg, vehicle was 5% solutol, 95% NaCl solution (at 0.9% saline concentration). At each designated time point (0.5, 1, 2, 4, 8 and 24 h after dosing), 20 μL whole blood were collected from the tail vein into Li-heparin tubes, frozen on dry ice within 1-2 minutes of sampling and stored at −20° C. until processed for LC-MS analysis. The obtained data is as follows:
The pharmacokinetics of additional compounds of the present invention was evaluated in 3 female mice (C57BL/6J, 8 week old) after oral cassette dosing. Dose was 5 mg/kg, application volume was 5 mL/kg, vehicle was 5% solutol, 95% NaCl solution (at 0.9% saline concentration). At each designated time point (0.25, 0.5, 1, 2, 4 and 8 h after dosing), 20 μL whole blood were collected from the tail vein into Li-heparin tubes, frozen on dry ice within 1-2 minutes of sampling and stored at −20° C. until processed for LC-MS analysis.

In general, IC50 refers to the point on the concentration scale where inhibition reaches its midpoint. For `[2H][C@]1(n2ncc(-c3onc(-c4c(F)cccc4Cl)c3-c3ncccn3)c2C(F)F)C[C@](C)(O)C1` [Example 4-1/1], the IC50 in data set [1] lay in the range of 0.1 to 1 µM.

As a reminder, the CC50 is the concentration giving 50% cytotoxicity. A high value points to lower toxicity to the cells. The term EC50 denotes the concentration needed to bring the measured effect to its halfway point. For the compound `[2H]C([2H])(OC1CC1)c1c(-c2c(F)cccc2Cl)noc1-c1cnn(C([2H])([2H])CC(C)(C)O)c1C(F)(F)F` [Example 9, 4-(4-(3-(2-Chloro-6-fluorophenyl)-4-(cyclopropoxymethyl-d2)isoxazol-5-yl)-5-(trifluoro-methyl)-1H-pyrazol-1-yl)-2-methylbutan-4,4-d2-2-ol], the IC50 in data set [1] was in the range of 0.01 to 0.1 µM. The compound further displayed a CC50 in data set [2] of 18 µM. Besides, the EC50 in data set [3] is 0.1 to 1 µM.

Turning to `[2H]c1nc(-c2c(-c3c(F)cccc3Cl)noc2-c2cnn(C([2H])([2H])CC(C)(C)O)c2C(F)(F)F)nc([2H])c1[2H]` [Example 3-3], the IC50 in data set [1] lay within 0.01 to 0.1 µM.

For the compound `[2H]C([2H])(OC(C)C)c1c(-c2c(F)cccc2Cl)noc1-c1cnn(-c2cc(F)cc(Cl)c2)c1C(F)(F)F` [111/4], the IC50 in data set [1] is 0.01 to 0.1 µM.

Turning to `[2H]C([2H])([2H])OC([2H])([2H])c1c(-c2c(F)cccc2Cl)noc1-c1cnn(-c2cccc(Cl)c2)c1C(F)(F)F` [Example 110, 3-(2-Chloro-6-fluorophenyl)-5-(1-(3-chlorophenyl)-5-(trifluoromethyl)-1H-pyrazol-4-yl)-4-((methoxy-d3)methyl-d2)isoxazole], the IC50 in data set [1] is less than 0.01 µM. Besides, in data set [2], the CC50 was greater than 100 µM. Besides, the EC50 in data set [3] is less than 0.1 µM.

For `[2H]c1nc(-c2c(-c3c(F)cccc3Cl)noc2-c2cnn(C([2H])([2H])CC(C)(C)O)c2C(F)(F)F)sc1[2H]` [Example 3-2], the IC50 in data set [1] was less than 0.01 µM.

As a reminder, the half-life is the time needed for the level to fall by half in the phase considered. Low values mean rapid decline, high ones slow decline. `[2H]c1nc(-c2c(-c3c(F)cccc3Cl)noc2-c2cnn(-c3cccc(Cl)c3)c2C(F)(F)F)sc1[2H]` [Example 107, 3-(2-Chloro-6-fluorophenyl)-5-(1-(3-chlorophenyl)-5-(trifluoromethyl)-1H-pyrazol-4-yl)-4-(thiazol-2-yl-d2)isoxazole]: the IC50 in data set [1] was 0.01 to 0.1 µM. Also, the half-life in data set [4] was 1.6 h. Besides, the AUC(0-t) in data set [4] (read-out: AUC0-8 h) worked out at 871 ng·h/mL.

For the compound `[2H][C@]1(n2ncc(-c3onc(-c4ccccc4Cl)c3-c3ncccn3)c2C(F)(F)F)C[C@@](C)(O)C1` [2-2/1], in data set [1], the IC50 was 0.01 to 0.1 µM.

As to `[2H]C([2H])(OC(C)C)c1c(-c2c(F)cc(F)cc2Cl)noc1-c1cnn(-c2cccc(Cl)c2)c1C(F)(F)F` [111/2], the half-maximal inhibitory concentration (IC50) in data set [1] was in the range of 0.1 to 1 µM.

For `[2H]c1c([2H])c(F)c(-c2noc(-c3cnn(-c4cccc(Cl)c4)c3C(F)(F)F)c2C(=O)OC)c(Cl)c1[2H]` [Example 104, Methyl 3-(2-chloro-6-fluorophenyl-3,4,5-d3)-5-(1-(3-chlorophenyl)-5-(trifluoro-methyl)-1H-pyrazol-4-yl)isoxazole-4-carboxylate], in data set [1], the IC50 was in the range of 0.01 to 0.1 µM.

As to `[2H]C([2H])(CC(C)(C)O)n1ncc(-c2onc(-c3c(F)cccc3Cl)c2C(=O)OC)c1C(F)(F)F` [Example 7, Methyl 3-(2-chloro-6-fluorophenyl)-5-(1-(3-hydroxy-3-methylbutyl-1,1-d2)-5-(tri-fluoromethyl)-1H-pyrazol-4-yl)isoxazole-4-carboxylate], in data set [1], the IC50 was in the range of 0.01 to 0.1 µM. Moreover, the CC50 in data set [2] was found to be 20 µM. In addition, in data set [3], the EC50 is less than 0.1 µM.

On to `[2H]C([2H])(OC(F)(F)F)c1c(-c2c(F)cccc2Cl)noc1-c1cnn(-c2cccc(Cl)c2)c1C(F)(F)F` [Example 109, 3-(2-Chloro-6-fluorophenyl)-5-(1-(3-chlorophenyl)-5-(trifluoromethyl)-1H-pyrazol-4-yl)-4-((trifluoromethoxy)methyl-d2)isoxazole], for which the IC50 in data set [1] lay within 0.01 to 0.1 µM.

Consider `[2H][C@]1(n2ncc(-c3onc(-c4c(F)cccc4Cl)c3-c3ncccn3)c2C(F)(F)F)C[C@](C)(O)C1` [Example 2-1, (1r,3r)-3-(4-(3-(2-Chloro-6-fluorophenyl)-4-(pyrimidin-2-yl)isoxazol-5-yl)-5-(trifluoro-methyl)-1H-pyrazol-1-yl)-1-methylcyclobutan-3-d-1-ol], for which the IC50 in data set [1] lay within 0.1 to 1 µM.

Take `[2H]c1nc(-c2c(-c3c(F)cccc3Cl)noc2-c2cnn(-c3cccc(Cl)c3)c2C(F)(F)F)nc([2H])c1[2H]` [Example 103, 3-(2-Chloro-6-fluorophenyl)-5-(1-(3-chlorophenyl)-5-(trifluoromethyl)-1H-pyrazol-4-yl)-4-(pyrimidin-2-yl-d3)isoxazole]: in data set [1], the IC50 was in the range of 0.01 to 0.1 µM.

On to `[2H]c1cc([2H])c(-n2ncc(-c3onc(-c4c(F)cccc4Cl)c3C(=O)OC)c2C(F)(F)F)c([2H])c1Cl` [Example 105, Methyl 3-(2-chloro-6-fluorophenyl)-5-(1-(3-chlorophenyl-2,4,6-d3)-5-(trifluoro-methyl)-1H-pyrazol-4-yl)isoxazole-4-carboxylate], for which, in data set [1], the IC50 was less than 0.01 µM.

As to `[2H][C@]1(n2ncc(-c3onc(-c4c(F)cccc4Cl)c3-c3ncccn3)c2C(F)(F)F)C[C@@](C)(O)C1` [Example 2-2, (1s,3s)-3-(4-(3-(2-chloro-6-fluorophenyl)-4-(pyrimidin-2-yl)isoxazol-5-yl)-5-(trifluoromethyl)-1H-pyrazol-1-yl)-1-methylcyclobutan-3-d-1-ol], the IC50 in data set [1] was 0.01 to 0.1 µM.

Consider `[2H]c1c([2H])c(F)c(-c2noc(-c3cnn(C([2H])([2H])CC(C)(C)O)c3C(F)(F)F)c2-c2ncccn2)c(Cl)c1[2H]` [5/2], for which, in data set [1], the IC50 is less than 0.01 µM.

Take `[2H]C([2H])(CC(C)(C)O)n1ncc(-c2onc(-c3c(F)cccc3Cl)c2-c2ncccn2)c1C(F)F` [Example 4, 4-(4-(3-(2-Chloro-6-fluorophenyl)-4-(pyrimidin-2-yl)isoxazol-5-yl)-5-(difluoromethyl)-1H-pyrazol-1-yl)-2-methylbutan-4,4-d2-2-ol]: the IC50 in data set [1] lay within 0.01 to 0.1 µM. For the same compound, the CC50 in data set [2] is greater than 100 µM. Further, the EC50 in data set [3] is less than 0.1 µM.

Consider `[2H]C([2H])(CC(C)(C)O)n1ncc(-c2onc(-c3c(F)cccc3Cl)c2-c2nccs2)c1C(F)(F)F` [Example 3-1], for which the IC50 in data set [1] was less than 0.01 µM. The compound also gave a CC50 in data set [2] of 17 µM. Besides, the EC50 in data set [3] is less than 0.1 µM.

For the compound `[2H][C@]1(n2ncc(-c3onc(-c4ccccc4Cl)c3-c3ncccn3)c2C(F)(F)F)C[C@](C)(O)C1` [Example 2-1/1], the IC50 in data set [1] fell in the range of 0.1 to 1 µM.

In the case of `[2H]c1cc([2H])c(-n2ncc(-c3onc(-c4c(F)cccc4Cl)c3-c3nccs3)c2C(F)(F)F)c([2H])c1Cl` [Example 106, 3-(2-Chloro-6-fluorophenyl)-5-(1-(3-chlorophenyl-2,4,6-d3)-5-(trifluoromethyl)-1H-pyrazol-4-yl)-4-(thiazol-2-yl)isoxazole], in data set [1], the IC50 is less than 0.01 µM.

With `[2H][C@]1(n2ncc(-c3onc(-c4c(F)cccc4Cl)c3-c3ncccn3)c2C(F)F)C[C@@](C)(O)C1` [4-2/1], in data set [1], the IC50 was 0.01 to 0.1 µM.

With `[2H]C([2H])(OC1CC1)c1c(-c2c(F)cc(F)cc2Cl)noc1-c1cnn(-c2cccc(Cl)c2)c1C(F)(F)F` [Example 111/1], in data set [1], the IC50 was in the range of 0.1 to 1 µM.

For the compound `[2H]C([2H])([2H])C([2H])([2H])OC(=O)c1c(-c2c(F)cccc2Cl)noc1-c1cnn(-c2cccc(Cl)c2)c1C(F)(F)F` [Example 100/1], the IC50 in data set [1] was less than 0.01 µM.

On to `[2H]C([2H])(OC1CC1)c1c(-c2c(F)cccc2Cl)noc1-c1cnn(-c2cc(F)cc(Cl)c2)c1C(F)(F)F` [111/3], for which, in data set [1], the IC50 was 0.01 to 0.1 µM.

Take `[2H]C([2H])(OCC)c1c(-c2c(F)cccc2Cl)noc1-c1cnn(-c2cccc(Cl)c2)c1C(F)(F)F` [110/3]: in data set [1], the IC50 was in the range of 0.01 to 0.1 µM.

For `[2H]C([2H])(OC1COC1)c1c(-c2c(F)cccc2Cl)noc1-c1cnn(-c2cccc(Cl)c2)c1C(F)(F)F` [110/2], the IC50 in data set [1] fell in the range of 0.01 to 0.1 µM.

The record behind these values is patent publication US20250243190A1, “NEW DEUTERATED RORGAMMA/RORGAMMAT INVERSE AGONISTS” (IMMUNIC AG, priority 2022, published 2025).
